A short description of data set [1]: Crystal width from scanning electron microscope micrographs (FIG. 3). The data set is classed as physicochemical. The protocol:
Gradual cooling of the vilanterol ethanolic solution (25 mg/ml) in rubber container (4), placed in one storage compartment (3), was carried out by reducing the temperature from 37° C. to 4° C. by storing the container in a refrigerator inside the ISS until the return to Earth. The results obtained upon return to Earth show the vilanterol space grown crystals in rubber container (4).
Vilanterol (250 mg) was dissolved in 10 ml ethanol to result in a vilanterol solution having a final concentration of 25 mg/ml. Main compartment (2) of cassette (1) (FIG. 1A) was filled with 2 ml of the prepared vilanterol/ethanol solution. In addition, one rubber container (4), placed in one storage compartment (3), was filled with 1 ml heptane (anti-solvent). Cassette (1) was kept at 37° C.
After 10 days from launch into space, one plunger was released thereby activating one rubber container (4) in one storage compartment (3), allowing 1 ml of heptane to flow into main compartment (2), which, as mentioned above, comprises the vilanterol/ethanol solution. […]
The experiments performed in space on board of the ISS yielded crystals that were substantially larger and of higher crystalline order compared to their Earth-grown equivalents. […] The quantity of material manufactured in orbit was sufficient for complete characterization study and further processing tests. […]

Data set [2] is described as follows: Highest concentration of vilanterol dissolvable in ethanol at 37° C. To be noted: ethanol as the solvent. The data set is classed as physicochemical. The procedure: In order to obtain optimal results in space, adjustment of the Vilanterol crystallization protocol to fit the system of the invention, and vice versa, was required. The original main compartment volume ranged between 0.1 to 1 ml. To maximize the amount of drug used in the experiment, and still meet the safety limitation approved by NASA, the main compartment (2) size was increased to 2 ml. The vilanterol concentration was adjusted according to the maximum temperature in which the payload could be stored on the ISS (37° C.).

Molecules are shown by their SMILES.

Turning to `OCc1cc([C@@H](O)CNCCCCCCOCCOCc2c(Cl)cccc2Cl)ccc1O` [vilanterol, 4-{(1R)-2-[(6-{2-[(2,6-dichlorobenzyl)oxy]ethoxy}hexyl)amino]-1-hydroxyethyl}-2-(hydroxymethyl)phenol], the width of crystals in data set [1] (crystals crystalized in space under microgravity (FIG. 3, right hand panel)) is listed as 10-20 microns; in data set [1] (crystals crystalized on Earth, 1 g (FIG. 3, left hand panel)), “a few”. Also, the “highest concentration of vilanterol that could be dissolved” value in data set [2] was found to be 2.5 % w/v.

These data come from US11760716B2, “Drug crystallization under microgravity conditions” (SPACEPHARMA R&D ISRAEL LTD., priority 2018, dated 2023).
